Measured values: patent publication US6545033B1, “Fused 1-(2,6-dichloro-4-trifluoromethylphenyl)-pyrazoles, the synthesis thereof and the use thereof as pesticides” (3-Dimensional Pharmaceuticals, Inc., priority 1999, dated 2003)

Assays:
[1] = target: Mouse Brain GABA Receptors; assay: In vitro assay of binding to mouse brain GABA receptors (3H-EBOB displacement, mouse brain membranes); conditions: displacement of 5.2 nM 3H-EBOB, about 45 min at about 24° C.
Protocol: Mouse brains were obtained from carbon dioxide-asphyxiated Swiss-Webster mice, washed with phosphate-buffered saline, and used either fresh or after storage at −80° C. for up to 10 months. Unless specified, all preparation steps were performed at 0-4° C. For each preparation, 20 brains were suspended in about 40 mL of 0.32 M sucrose and homogenized for about 2 minutes, using a Tissumizer™ homogenizer equipped with a SDT-100EN probe (available from Tekmar-Dohrmann, Cincinnati, Ohio) running at 50% of its maximum speed. The extract was centrifuged for about 5 min at about 1000×g to pellet intact brain tissue. The supernatant was retained and the pellet washed with an additional 40 mL of 0.32 M sucrose and centrifuged at 1000×g for about 5 minutes. The 1000×g supernatants were combined and centrifuged at about 10,000×g for about 20 min to pellet membranes. The 10,000×g supernatant was discarded and the pellet was resuspended in about 20 mL of water containing 1 mM EDTA. The sample was dialyzed two times for about 3 hours each against about 3 L of water. The sample was then centrifuged at about 25,000×g for about 30 min to pellet the membranes. After centrifugation, the supernatant was discarded and the wet pellet recovered. The protein concentration of the pellet was determined by the Bio-Rad Protein Assay (available from Bio-Rad Laboratories, Hercules, Calif.) using bovine serum albumin as a standard. The membranes were aliquoted and stored at −80° C. for up to 6 months before use.
Mouse brain membranes were prepared as described above from dissected mouse brains. Test compounds were dissolved in dimethylsulfoxide (DMSO) at concentrations ranging from about 2 nM to about 100 mM. About 1 μL of a dissolved test compound was dispensed into a well of a 96-well polystyrene plate. About 100 μL of ice cold assay buffer (10 mM phosphate, 300 mM NaCl, pH 7.5) containing 5.2 nM 4′-Ethynyl-4-n-[2,3-^3H2]propylbicycloorthobenzoate (^3H-EBOB, 38 Ci/mmol, available from NEN Life Science Products, Boston, Mass.) was added to the well, followed by about 100 μL of ice cold assay buffer containing about 0.25-0.5 mg/mL mouse brain membranes. Control wells were prepared the same way except that the mouse brain membranes were omitted from the “negative” wells, and the test compounds were omitted from the “positive” wells. The samples were incubated for about 45 min at about 24° C. and then filtered on a 0.1% (w/v) polyethylenimine-soaked glass fiber Filtermat A (available from EG&G Wallac Inc., Gaithersburg, Md.) followed by four 100 mL rinses of cold assay buffer using a Harvester 96® cell harvester (available from Tomtec, Orange, Conn.). The filtermat was air dried and radioactivity bound to the filtermat was detected with either a 1450 MicroBeta® Trilux scintillation counter (available from EG&G Wallac Inc.) or a Topcount NXT™ scintillation counter (available from Packard Instrument Co., Meriden, Conn.) using standard methods.
Specific binding was considered to be the difference between total ^3H bound to the mouse brain membranes in the absence of any inhibitors and nonspecific ^3H bound to the mouse brain membranes upon the addition of 5 μM unlabeled EBOB. The average radioactivity contained in the “negative” wells was subtracted from each of the assay wells. […] Compounds that displaced ^3H-EBOB specifically bound to the mouse brain membranes were tested at 24-48 different final concentrations, varying from about 1 nM to about 125 μM, in order to determine the concentration at which 50% of the maximum inhibition due to the addition of that compound was observed (IC50). […]

[2] = test system: houseflies (Musca domestica); assay: In vivo housefly contact assay; conditions: contact in coated glass test tube, about 24 hours; mM = concentration of the DMSO solution, about 1 μL applied
Protocol: This example describes an in vivo assay to screen compounds for their ability to kill houseflies via contact. Newly emerged houseflies (Musca domestica, available from Rincon-Vitova Insectaries, Inc., Ventura, Calif.) were sedated with carbon dioxide gas, collected in 50 mL polypropylene conical tubes containing filter paper saturated with 10% (w/w) sucrose in water, and allowed to feed at room temperature for about 2-4 hours. Test compounds were dissolved as in dimethylsulfoxide (DMSO) at concentrations ranging from about 0.05 mM to about 100 mM. About 1 μL of dissolved test compound and about 100 μL of isopropanol were dispensed into the bottom of a 9 mL screw-top glass test tube. Positive control test tubes were prepared in the same manner except that no test compounds were dissolved in the DMSO. Each test tube was rolled to coat the sides with the chemical solution, and allowed to air dry 24-48 hours. About 20 houseflies were sedated by refrigeration at 0-4° C. and transferred to each test tube. Each test tube was sealed with organdy cloth secured by an open top screw cap and laid horizontally in the dark. After about 24 hours, the healthy, moribund, and dead houseflies in each test tube were counted. The percentage of dead houseflies in each test tube was then calculated using the formula M=100(D−(FC/100))/(F−(FC/100)), in which M is the percentage of dead houseflies due to the addition of the test compound, D is the number of dead houseflies in the test tube, F is the total number of houseflies in the test tube, and C is the percentage of dead houseflies in the control test tubes.

SMILES	IC50 [1] [nM]	LD50 (mM), Flies [2] [mM]
FC(F)(F)c1cc(Cl)c(-n2cc3c(n2)CSC3)c(Cl)c1 [Compound 3, 2-[2,6-Dichloro-4-(trifluoromethyl)phenyl]-4,6-dihydrothieno-[3,4-c]pyrazole]	2000	2.7
FC(F)(F)c1cc(Cl)c(-n2cc3c(n2)CCC3)c(Cl)c1 [Compound 11, 2-[2,6-Dichloro-4-(trifluoromethyl)phenyl]-2,4,5,6-tetrahydrocyclopenta[c]pyrazole]	1600	>100
FC(F)(F)c1cc(Cl)c(-n2cc3c(n2)CCCCC3)c(Cl)c1 [Compound 15, 2-[2,6-Dichloro-4-(trifluoromethyl)phenyl]-2,4,5,6,7,8-hexahydrocyclohepta[c]pyrazole]	30000	>100
